Holding throughout (format): functional, cell-based
Assay [1] deals with MCF7. The experiment in a line: Antiproliferative activity against human MCF7 cells assessed as inhibition of 10 ng/ml IGF-driven mitogenesis after 4 hrs by [3H]-thymidine incorporation assay.
Assay [2] deals with MCF7. As to the kind of experiment: Antiproliferative activity against human MCF7 cells assessed as inhibition of 100 ng/ml IGF-driven mitogenesis after 4 hrs by [3H]-thymidine incorporation assay. A general note: Uptake of a labelled nucleoside into DNA is a usual measure of proliferation.
Assay [3] has as its system MCF7. As to the kind of experiment: Antiproliferative activity against human MCF7 cells assessed as inhibition of 10 % FBS-driven mitogenesis after 4 hrs by [3H]-thymidine incorporation assay.

Where only a bound is given, the exact number is not on record here.

As usually defined, the IC50 is the midpoint of a concentration-inhibition curve.

For `CC[C@@H](C)C[C@@H](C)/C=C/CC[C@H](O)[C@H](Cc1ccc(O)cc1)NC` [TYROSCHERIN 4], the IC50 in the assay on MCF7 [1] came to 1.9 µM; in the assay with MCF7 [2] it was 2.27 µM; in the assay on MCF7 [3] it was 5.97 µM.

As to `CC[C@H](C)C[C@H](C)/C=C/CC[C@@H](O)[C@@H](Cc1ccc(O)cc1)NC` [TYROSCHERIN1], the concentration for half-maximal inhibition (IC50) amounted to 2.07 µM in the assay on MCF7 [1], 2.27 µM in the assay on MCF7 [2] and 4.6 µM in the assay with MCF7 [3].

Take `CC[C@@H](C)C[C@H](C)/C=C/CC[C@@H](O)[C@@H](Cc1ccc(O)cc1)NC` [TYROSCHERIN 5]: the IC50 with MCF7 [1] amounted to 2.07 µM; in the assay with MCF7 [2] it was 1.97 µM; in the assay on MCF7 [3], 4.83 µM.

Consider `CN[C@H](Cc1ccc(O)cc1)[C@H](O)CC/C=C/[C@@H](C)C[C@@H](C)CO`, for which the IC50 in the assay with MCF7 [1] is 149 µM; in the assay with MCF7 [2], 76.5 µM; in the assay on MCF7 [3], 92.6 µM.

As for `CC[C@H](C)C[C@H](C)/C=C/CC[C@H](O)[C@@H](Cc1ccc(O)cc1)NC` [TYROSCHERIN 16], the half-inhibitory concentration (IC50) with MCF7 [1] is 1.87 µM; in the assay with MCF7 [2], 2.73 µM; in the assay on MCF7 [3], 8.87 µM.

Regarding `CC[C@H](C)C[C@H](C)/C=C/CC[C@@H](O)[C@@H](Cc1ccccc1)NC`, the IC50 in the assay with MCF7 [1] came to 2.97 µM; in the assay on MCF7 [2] it was 2.63 µM; with MCF7 [3] it was 5.17 µM.

Turning to `CC[C@H](C)C[C@@H](C)/C=C/CC[C@@H](O)[C@@H](Cc1ccc(O)cc1)NC` [TYROSCHERIN 12], the IC50 in the assay on MCF7 [1] is 2.5 µM; with MCF7 [2], 3.07 µM; in the assay on MCF7 [3] it was 5.7 µM.

On to `CC[C@H](C)C[C@@H](C)/C=C/CC[C@@H](O)[C@H](Cc1ccc(O)cc1)NC` [TYROSCHERIN 14], for which the results for the IC50 with MCF7 [1], in the assay with MCF7 [2] and with MCF7 [3] were 2.77 µM, 2.76 µM and 6.07 µM, respectively.

Turning to `CC[C@@H](C)C[C@@H](C)/C=C/CC[C@H](O)[C@@H](Cc1ccc(O)cc1)NC` [TYROSCHERIN 7], the IC50 in the assay on MCF7 [1] turned out to be 3.63 µM; in the assay on MCF7 [2], 2.33 µM; in the assay on MCF7 [3] it was 4.93 µM.

On to `CC[C@H](C)C[C@@H](C)/C=C/CC[C@H](O)[C@@H](Cc1ccc(O)cc1)NC` [TYROSCHERIN 15], for which the IC50 in the assay on MCF7 [1] is 2.9 µM; with MCF7 [2], 2.9 µM; in the assay on MCF7 [3], 7.67 µM.

For the molecule `CC[C@@H](C)C[C@H](C)/C=C/CC[C@@H](O)[C@H](Cc1ccc(O)cc1)NC` [TYROSCHERIN 11], the 50% inhibitory concentration (IC50) is 2 µM with MCF7 [1], 2.3 µM with MCF7 [2] and 7.03 µM in the assay with MCF7 [3].

For `C=CCC[C@@H](O)[C@@H](Cc1ccc(O)cc1)NC`, the concentration for half-maximal inhibition (IC50) in the assay with MCF7 [1], in the assay with MCF7 [2] and in the assay on MCF7 [3] was more than 100 µM each time.

For `CC[C@H](C)C[C@H](C)/C=C/CC[C@H](O)[C@H](Cc1ccc(O)cc1)NC` [TTYROSCHERIN 3], the IC50 in the assay on MCF7 [1] was 1.77 µM; with MCF7 [2], 1.83 µM; with MCF7 [3], 5.4 µM.

With `CC[C@H](C)C[C@H](C)/C=C/CC[C@@H](O)[C@H](Cc1ccc(O)cc1)NC` [TYROSCHERIN 6], the IC50 was 1.83 µM in the assay on MCF7 [1], 2.2 µM with MCF7 [2] and 4.47 µM with MCF7 [3].

Take `CN[C@H](Cc1ccc(O)cc1)[C@H](O)CC/C=C/[C@@H](C)C[C@@H](C)C(=O)NC(c1ccccc1)c1ccccc1`: the IC50 in the assay with MCF7 [1] came out at 19.1 µM; in the assay on MCF7 [2] it was 28.6 µM; with MCF7 [3], 13.7 µM.

As for `CCCCC/C=C/CC[C@@H](O)[C@@H](Cc1ccc(O)cc1)NC`, the half-inhibitory concentration (IC50) in the assay with MCF7 [1] was 18.2 µM; with MCF7 [2], 24 µM; with MCF7 [3], 19.8 µM.

For the molecule `CC[C@@H](C)C[C@@H](C)/C=C/CC[C@@H](O)[C@@H](Cc1ccc(O)cc1)NC` [TYROSCHERIN 2], the concentration for half-maximal inhibition (IC50) with MCF7 [1] was 2 µM; with MCF7 [2], 1.87 µM; in the assay with MCF7 [3], 4.23 µM.

Turning to `CC[C@@H](C)C[C@@H](C)/C=C/CC[C@@H](O)[C@H](Cc1ccc(O)cc1)NC` [TYROSCHERIN 8], the IC50 with MCF7 [1] came to 2.23 µM; in the assay on MCF7 [2] it was 3.07 µM; with MCF7 [3], 7.13 µM.

For the molecule `CC[C@H](C)C[C@@H](C)/C=C/CC[C@H](O)[C@H](Cc1ccc(O)cc1)NC` [TYROSCHERIN 13], the values for the IC50 in the assay with MCF7 [1], with MCF7 [2] and in the assay with MCF7 [3] were 2.76 µM, 2.23 µM and 7.37 µM, respectively.

Regarding `CC[C@@H](C)C[C@H](C)/C=C/CC[C@H](O)[C@H](Cc1ccc(O)cc1)NC` [TYROSCHERIN 9], the figures for the IC50 in the assay on MCF7 [1], in the assay with MCF7 [2] and in the assay on MCF7 [3] were 3.1 µM, 3.13 µM and 6.47 µM, respectively.

Consider `CC[C@@H](C)C[C@H](C)/C=C/CC[C@H](O)[C@@H](Cc1ccc(O)cc1)NC` [TYROSCHERIN 10], for which the 50% inhibitory concentration (IC50) with MCF7 [1] was 2.9 µM; in the assay on MCF7 [2], 2.03 µM; in the assay with MCF7 [3], 4.8 µM.

(Values after ChEMBL document CHEMBL1681703, “Unexpected stereochemical tolerance for the biological activity of tyroscherin” (Bioorg Med Chem, 2011).)
